Laboratory results as given in the NIST ThermoML archive (doi:10.1016/j.jct.2013.08.031).
Numbers after ± are expanded uncertainties.

Assay: mn = molality of the nth substance listed, in mol/kg
Details: 74.66 kPa, Liquid, Vibrating tube method

CCC(C)[N+](C(C)CC)(C(C)CC)C(C)CC.[Br-] (stereo not given) [tetra-sec-butyl ammonium bromide] + O
mass density [kg/m3]
Details | m1 = 0.0097 | m1 = 0.01981 | m1 = 0.03014 | m1 = 0.04066 | m1 = 0.04983 | m1 = 0.0598 | m1 = 0.07027 | m1 = 0.07997 | m1 = 0.08984 | m1 = 0.1018
298.15 K | 997.488 ± 0.11 | 997.958 ± 0.11 | 998.439 ± 0.11 | 998.953 ± 0.11 | 999.408 ± 0.11 | 999.909 ± 0.11 | 1000.44 ± 0.11 | 1000.95 ± 0.11 | 1001.45 ± 0.11 | 1002.08 ± 0.11
303.15 K | 996.085 ± 0.11 | 996.548 ± 0.11 | 997.029 ± 0.11 | 997.518 ± 0.11 | 997.974 ± 0.11 | 998.449 ± 0.11 | 998.977 ± 0.11 | 999.449 ± 0.11 | 999.971 ± 0.11 | 1000.56 ± 0.11
308.15 K | 994.477 ± 0.11 | 994.931 ± 0.11 | 995.392 ± 0.11 | 995.891 ± 0.11 | 996.309 ± 0.11 | 996.799 ± 0.11 | 997.293 ± 0.11 | 997.778 ± 0.11 | 998.299 ± 0.11 | 998.923 ± 0.11

CCCC[N+](CCCC)(CCCC)CCCC.[Br-] [tetrabutylammonium bromide] + O
mass density [kg/m3]
Details | m1 = 0.01143 | m1 = 0.02179 | m1 = 0.02564 | m1 = 0.03767 | m1 = 0.0459 | m1 = 0.05855 | m1 = 0.0711 | m1 = 0.07968 | m1 = 0.09066 | m1 = 0.1003
298.15 K | 997.306 ± 0.11 | 997.542 ± 0.11 | 997.632 ± 0.11 | 997.89 ± 0.11 | 998.083 ± 0.11 | 998.37 ± 0.11 | 998.631 ± 0.11 | 998.818 ± 0.11 | 999.091 ± 0.11 | 999.267 ± 0.11
303.15 K | 995.897 ± 0.11 | 996.124 ± 0.11 | 996.207 ± 0.11 | 996.459 ± 0.11 | 996.642 ± 0.11 | 996.918 ± 0.11 | 997.168 ± 0.11 | 997.351 ± 0.11 | 997.608 ± 0.11 | 997.806 ± 0.11
308.15 K | 994.271 ± 0.11 | 994.493 ± 0.11 | 994.567 ± 0.11 | 994.819 ± 0.11 | 994.986 ± 0.11 | 995.247 ± 0.11 | 995.487 ± 0.11 | 995.662 ± 0.11 | 995.912 ± 0.11 | 996.121 ± 0.11

CCCC[N+](CCCC)(C(C)CC)C(C)CC.[Br-] (stereo not given) [N-butyl-N,N-bis(1-methylpropyl)-1-butanaminium bromide] + O
mass density [kg/m3]
Details | m1 = 0.01181 | m1 = 0.02026 | m1 = 0.03102 | m1 = 0.04017 | m1 = 0.05043 | m1 = 0.0598 | m1 = 0.06968 | m1 = 0.08191 | m1 = 0.09038 | m1 = 0.1036
298.15 K | 997.635 ± 0.11 | 998.067 ± 0.11 | 998.623 ± 0.11 | 999.106 ± 0.11 | 999.638 ± 0.11 | 1000.14 ± 0.11 | 1000.66 ± 0.11 | 1001.3 ± 0.11 | 1001.76 ± 0.11 | 1002.47 ± 0.11
303.15 K | 996.234 ± 0.11 | 996.663 ± 0.11 | 997.215 ± 0.11 | 997.699 ± 0.11 | 998.223 ± 0.11 | 998.719 ± 0.11 | 999.241 ± 0.11 | 999.878 ± 0.11 | 1000.33 ± 0.11 | 1001.03 ± 0.11
308.15 K | 994.634 ± 0.11 | 995.062 ± 0.11 | 995.611 ± 0.11 | 996.096 ± 0.11 | 996.617 ± 0.11 | 997.117 ± 0.11 | 997.631 ± 0.11 | 998.265 ± 0.11 | 998.711 ± 0.11 | 999.421 ± 0.11

CC(C)C[N+](CC(C)C)(CC(C)C)CC(C)C.[Br-] [tetra-iso-butyl ammonium bromide] + O
mass density [kg/m3]
Details | m1 = 0.01022 | m1 = 0.02021 | m1 = 0.02983 | m1 = 0.03847 | m1 = 0.04829 | m1 = 0.05621 | m1 = 0.06888 | m1 = 0.07666 | m1 = 0.08623 | m1 = 0.1002
298.15 K | 997.574 ± 0.11 | 998.092 ± 0.11 | 998.59 ± 0.11 | 999.027 ± 0.11 | 999.524 ± 0.11 | 999.922 ± 0.11 | 1000.56 ± 0.11 | 1000.96 ± 0.11 | 1001.43 ± 0.11 | 1002.15 ± 0.11
303.15 K | 996.171 ± 0.11 | 996.676 ± 0.11 | 997.167 ± 0.11 | 997.6 ± 0.11 | 998.101 ± 0.11 | 998.499 ± 0.11 | 999.123 ± 0.11 | 999.518 ± 0.11 | 999.988 ± 0.11 | 1000.7 ± 0.11
308.15 K | 994.553 ± 0.11 | 995.043 ± 0.11 | 995.531 ± 0.11 | 995.96 ± 0.11 | 996.462 ± 0.11 | 996.855 ± 0.11 | 997.478 ± 0.11 | 997.85 ± 0.11 | 998.324 ± 0.11 | 999.035 ± 0.11

CCCC[N+](CCCC)(CC(C)C)CC(C)C.[Br-] [N-butyl-N,N-bis(2-methylpropyl)-1-butanaminium bromide] + O
mass density [kg/m3]
Details | m1 = 0.01065 | m1 = 0.01998 | m1 = 0.0287 | m1 = 0.03815 | m1 = 0.04991 | m1 = 0.05935 | m1 = 0.06884 | m1 = 0.08078 | m1 = 0.0922 | m1 = 0.1044
298.15 K | 997.571 ± 0.11 | 998.046 ± 0.11 | 998.493 ± 0.11 | 998.971 ± 0.11 | 999.575 ± 0.11 | 1000.05 ± 0.11 | 1000.54 ± 0.11 | 1001.16 ± 0.11 | 1001.72 ± 0.11 | 1002.35 ± 0.11
303.15 K | 996.173 ± 0.11 | 996.647 ± 0.11 | 997.094 ± 0.11 | 997.573 ± 0.11 | 998.175 ± 0.11 | 998.652 ± 0.11 | 999.131 ± 0.11 | 999.751 ± 0.11 | 1000.31 ± 0.11 | 1000.94 ± 0.11
308.15 K | 994.575 ± 0.11 | 995.047 ± 0.11 | 995.492 ± 0.11 | 995.975 ± 0.11 | 996.571 ± 0.11 | 997.048 ± 0.11 | 997.529 ± 0.11 | 998.152 ± 0.11 | 998.702 ± 0.11 | 999.327 ± 0.11
